Numbered stars: 1 amine (or outer) side, 2 acyl side, 3 side chain; on linkers, the order of the positions; unused ones are H or OH. Square brackets hold non-standard residues; d marks the D form. Peptide text beside a SMILES is read from it. * marks the point of attachment. ξ: configuration not given here. ξNip = O=C(C1CCCN([*:1])C1)[*:2]; ξβ2hAla = CC(CN[*:1])C(=O)[*:2]; Phg = N[C@H](C(=O)O)c1ccccc1; Ac6c = NC1(C(=O)O)CCCCC1; Heptanoyl = CCCCCCC(=O)*; Propionyl = CCC(=O)*; Butyryl = CCCC(=O)*

The target of experiment [1] is T1, human ORL1 (Homo sapiens, UniProt P41146).
T1 construct: expressed in transfected cells; host or cells: CHO cells (G418-selected)
Briefly: Stimulation of [35S]GTPγS binding in membranes of CHO cells transfected with human ORL-1. The class given is biochemical. To be noted: for [35S]GTPγS Binding Percent Stimulation: Table 1, relative to nociceptin; for EC50 ± SEM, stimulation of [35S]GTPγS binding: Table 6; for Emax: read-out: % Stimulation ± SEM of [35S]GTPγS binding. The protocol:
First, CHO cells transfected with human ORL-1 are scraped from tissue culture dishes into 20 mM HEPES, 1 mM EDTA, and then centrifuged at 500×g for 10 minutes. The cells are then re-suspended in this buffer and homogenized using a Polytron Homogenizer.
The cellular homogenate is next centrifuged at 20,000×g for 20 minutes. Following this, the resulting pellet is re-suspended in a buffer containing 20 mM HEPES, 10 mM MgCl2, and 100 mM NaCl, having a resulting pH of 7.4. The suspension is then re-centrifuged at 20,000×g and suspended once more in the above-listed buffer. The pellet may be frozen at −70° C. prior to the final centrifugation. For the binding assay, membranes (10-20 μg protein) are incubated with [^35S]GTPγγS (50 pM), GDP (usually 10 μM), and the desired compound. The total volume of the mixture is 1 ml, which is incubated for 60 min at 25° C.
Following incubation, samples are filtered over glass fiber filters and counted. […]
In these [^35S]GTPγS assays, binding was conducted as described above. EC50 values and percent stimulation were determined using the program Prism.

In experiment [2] the target is T1, human ORL1. Briefly: [3H]nociceptin binding to membranes of CHO cells transfected with human ORL1. To be noted: for Hill Coefficient: Table 5.

T1 sequence (P41146 whole entry): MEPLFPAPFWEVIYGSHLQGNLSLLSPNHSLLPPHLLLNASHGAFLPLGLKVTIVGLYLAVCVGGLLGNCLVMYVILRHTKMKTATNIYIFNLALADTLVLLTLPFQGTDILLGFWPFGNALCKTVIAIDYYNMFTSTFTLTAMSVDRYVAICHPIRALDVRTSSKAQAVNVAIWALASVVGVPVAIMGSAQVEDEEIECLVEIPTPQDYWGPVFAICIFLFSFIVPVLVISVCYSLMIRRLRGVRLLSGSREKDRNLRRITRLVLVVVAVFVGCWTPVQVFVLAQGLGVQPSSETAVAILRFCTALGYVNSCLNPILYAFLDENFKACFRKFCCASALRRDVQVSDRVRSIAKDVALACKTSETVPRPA

With `CCCC(=O)N[C@@H](CCCNC(=N)N)C(=O)N[C@@H](Cc1ccc(O)cc1)C(=O)N[C@@H](Cc1ccc(O)cc1)C(=O)N[C@@H](CCCNC(=N)N)C(=O)N[C@@H](Cc1c[nH]c2ccccc12)C(=O)N[C@@H](CCCNC(=N)N)C(N)=O` [IV-15-A, Butryl-RYYRWR-NH2] (Butyryl-RYYRWR-NH2), the “[35S]GTPγS Binding Percent Stimulation” value in experiment [1] amounted to 63%. By IC50 is commonly meant the point on the concentration scale where inhibition reaches its midpoint. A high value points to a need for much substance. In experiment [2], `CCC(=O)N[C@@H](CCCNC(=N)N)C(=O)N[C@@H](Cc1ccc(O)cc1)C(=O)N[C@@H](Cc1ccc(O)cc1)C(=O)N[C@@H](CCCNC(=N)N)C(=O)N[C@@H](Cc1c[nH]c2ccccc12)C(=O)N[C@@H](CCCNC(=N)N)C(N)=O` [IV-16-C, Propionyl-RYYRWR-NH2] (Propionyl-RYYRWR-NH2) returned an IC50 of 1.2 nM. Also, the “[35S]GTPγS Binding Percent Stimulation” value in experiment [1] came to 82%. Further, the “agonist/antagonist character at ORL1” value in experiment [1] (in words) is “nearly full agonist”. Consider `CCCCCCC(=O)N[C@@H](CCCNC(=N)N)C(=O)N[C@@H](Cc1ccc(O)cc1)C(=O)N[C@@H](Cc1ccc(O)cc1)C(=O)N[C@@H](CCCNC(=N)N)C(=O)N[C@@H](Cc1c[nH]c2ccccc12)C(=O)N[C@@H](CCCNC(=N)N)C(N)=O` [IV-18-C, Heptanoyl-RYYRWR-NH2] (Heptanoyl-RYYRWR-NH2), for which the IC50 in experiment [2] was found to be 2.6 nM. Moreover, the “[35S]GTPγS Binding Percent Stimulation” value in experiment [1] was 54%. Regarding `N=C(N)NCCC[C@H](NC(=O)[C@H](Cc1c[nH]c2ccccc12)NC(=O)[C@H](CCCNC(=N)N)NC(=O)[C@H](Cc1ccc(O)cc1)NC(=O)[C@H](Cc1ccc(O)cc1)NC(=O)[C@H](CCCNC(=N)N)NC(=O)C1CCCNC1)C(N)=O` (stereo partly drawn) [VII-1-A, Nipacotyl-Arg-Tyr-Tyr-Arg-Trp-Arg-NH2] (ξNip-RYYRWR-NH2), the “Hill Coefficient” value in experiment [2] worked out at 0.97. In experiment [1], the “EC50 ± SEM, stimulation of [35S]GTPγS binding” value is on record as “FLAT” and the Emax is < 20%. In the case of `CC(CN)C(=O)N[C@@H](CCCNC(=N)N)C(=O)N[C@@H](Cc1ccc(O)cc1)C(=O)N[C@@H](Cc1ccc(O)cc1)C(=O)N[C@@H](CCCNC(=N)N)C(=O)N[C@@H](Cc1c[nH]c2ccccc12)C(=O)N[C@@H](CCCNC(=N)N)C(N)=O` (stereo partly drawn) [VII-3-A, β-aminoisobutryl-Arg-Tyr-Tyr-Arg-Trp-Arg-NH2] (ξβ2hAla-RYYRWR-NH2), in experiment [2], the “Hill Coefficient” value came to 0.72. In experiment [1], the Emax is 29.1 ± 1.9%. Turning to `N=C(N)NCCC[C@H](NC(=O)[C@H](Cc1c[nH]c2ccccc12)NC(=O)[C@H](CCCNC(=N)N)NC(=O)[C@H](Cc1ccc(O)cc1)NC(=O)[C@H](Cc1ccc(O)cc1)NC(=O)[C@H](CCCNC(=N)N)NC(=O)C1(N)CCCCC1)C(N)=O` [VII-4-B, 1-aminocyclohexanoyl-Arg-Tyr-Tyr-Arg-Trp-Arg-NH2] (H-[Ac6c]RYYRWR-NH2), the “Hill Coefficient” value in experiment [2] was 1.0. Moreover, in experiment [1], the “EC50 ± SEM, stimulation of [35S]GTPγS binding” value was “FLAT” and the Emax was < 20%.

For `CC(=O)N[C@@H](CCCNC(=N)N)C(=O)N[C@H](C(=O)N[C@H](C(=O)N[C@@H](CCCNC(=N)N)C(=O)N[C@@H](Cc1c[nH]c2ccccc12)C(=O)N[C@@H](CCCNC(=N)N)C(N)=O)c1ccccc1)c1ccccc1` [VII-11-B, Ac-Arg-Phg-Phg-Arg-Trp-Arg-NH2] (Ac-R[Phg][Phg]RWR-NH2), the “Hill Coefficient” value in experiment [2] worked out at 0.93.

For the compound `CC(=O)N[C@@H](CCCNC(=N)N)C(=O)N[C@@H](Cc1ccc(O)cc1)C(=O)N[C@H](C(=O)N[C@@H](CCCNC(=N)N)C(=O)N[C@@H](Cc1c[nH]c2ccccc12)C(=O)N[C@@H](CCCNC(=N)N)C(N)=O)c1ccccc1` [VII-13-B, Ac-Arg-Tyr-Phg-Arg-Trp-Arg-NH2] (Ac-RY[Phg]RWR-NH2), in experiment [2], the “Hill Coefficient” value came out at 0.73. Take “Ac-Arg-Phe(SO3H)-Tyr-Arg-Trp-Arg-NH2 (Ac-R[Phe(SO3H)]YRWR-NH2) [VII-27-B]”: the “Hill Coefficient” value in experiment [2] turned out to be 1.12. For orientation: EC50 means the concentration giving half of the maximal effect. “Ac-RYYRWR-NH2 [Ac-RYYRWR-NH2] [listing 1 of 2 here]” returned an EC50 in experiment [1] of 1.2 nM. That is a single-digit nanomolar value. In the case of “Ac-RYYRWR-NH2 [Ac-RYYRWR-NH2] [listing 2 of 2 here]”, the “[35S]GTPγS Binding Percent Stimulation” value in experiment [1] is recorded as 100%.

The values are drawn from patent US7863416B2, “Nociceptin-based analgesics” (Synvax, Inc., priority 2001, dated 2011).
